From US12421253B2 (Mirati Therapeutics, Inc., priority 2020, dated 2025) come the findings set out here.

The structures appear in SMILES notation. pIC50: −log10 of the molar value.

Assay [1] has as its target T1, KRas^G12V (Homo sapiens, UniProt P01116, G12V).
T1 construct: […]; biotin (biotinylated); purchased Accelegan Inc
The experiment in a line: KRas binding assay (TR-FRET displacement of Cy5 labelled tracer). (Time-resolved FRET reads energy transfer from a long-lived donor to a nearby acceptor.)
Protocol: (§2) The ability of a compound to bind to KRas was measured using a TR-FRET displacement assay. […] After a 60-minute incubation at room temperature, the reaction was measured using a BMG LABTECH CLARIO star Plus via TR-FRET. […] The POC values were fit to a 4-parameter IC50 equation and the IC50 value reported.

The target of assay [2] is T2, KRas^G12R (Homo sapiens, UniProt P01116, G12R).
T2 construct: […]; biotin (biotinylated); purchased Accelegan Inc
T2 sequence (P01116 1-169 isoform P01116-2 G12R): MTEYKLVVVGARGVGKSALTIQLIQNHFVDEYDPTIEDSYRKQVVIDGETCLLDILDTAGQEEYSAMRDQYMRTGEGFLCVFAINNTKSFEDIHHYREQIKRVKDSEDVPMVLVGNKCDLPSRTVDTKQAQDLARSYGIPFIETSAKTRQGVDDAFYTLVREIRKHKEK
The assay is described as above.
Protocol: as §2

For assay [3], the target named is T3, KRas^G12D (Homo sapiens, UniProt P01116, G12D).
T3 construct: […]; biotin (biotinylated); purchased Accelegan Inc
T3 sequence (P01116 1-169 isoform P01116-2 G12D): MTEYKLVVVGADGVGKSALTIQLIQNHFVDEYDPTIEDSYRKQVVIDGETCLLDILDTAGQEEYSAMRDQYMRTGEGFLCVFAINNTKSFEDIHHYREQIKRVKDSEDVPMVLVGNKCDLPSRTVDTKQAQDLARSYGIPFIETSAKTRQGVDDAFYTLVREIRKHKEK
Described as above.
Protocol: as §2

The subject of assay [4] is PSN1 cells, pERK. The experiment in a line: Inhibition of KRas phosphorylation of ERK (Cisbio HTRF Advanced pERK assay). Type of assay: cell-based. Conditions: Homo sapiens, PSN1, 3 h, read-out: Inhibition (HTRF IC50 nM) of KRas-mediated Phosphorylation of ERK, PSN1. The essentials:
(§1)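 Cells seeded at 6,000/well in RPMI with 10% FBS, grown overnight at 37 °C, then exposed 3 h to 10-dose 3-fold compound series from 10 uM (0.8% DMSO final); 0.2 uM trametinib as minimum control. Lysates read for pERK by HTRF after 2 h antibody incubation at room temperature.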

In assay [5] the test system is MKN1 cells, pERK. Described as above. Type of assay: cell-based. Conditions: Homo sapiens, MKN-1, 3 h, read-out: Inhibition (HTRF IC50 nM) of KRas-mediated Phosphorylation of ERK, MKN1. An outline of the steps:
as §1

Assay [6] deals with ASPC1 cells, pERK. Described as above. Particulars: Homo sapiens, ASPC1, 3 h, AsPC-1 cells, read-out: Inhibition (HTRF IC50 nM) of KRas-mediated Phosphorylation of ERK, AsPC-1. The assay is classed as cell-based. An outline of the steps:
as §1

The test system of assay [7] is HCT116 cells, pERK. Described as above. The assay is classed as cell-based. Conditions: Homo sapiens, HCT-116, 3 hrs, read-out: Inhibition (HTRF IC50 nM) of KRas-mediated Phosphorylation of ERK, HCT116. An outline of the steps: as §1
The subject of assay [8] is H727 cells, pERK. The assay is described as above. The assay is classed as cell-based. Particulars: Homo sapiens, NCI-H727, 3 h, read-out: Inhibition (HTRF IC50 nM) of KRas-mediated Phosphorylation of ERK, H727. The essentials: as §1
For assay [9], the system named is H358 cells, pERK. The assay is described as above. The assay is classed as cell-based. Particulars: Homo sapiens, NCI-H358, 3 hrs, read-out: Inhibition (HTRF IC50 nM) of KRas-mediated Phosphorylation of ERK, H358. An outline of the steps:
as §1

Assay [10] has as its system H460 cells, pERK. The description is as above. Type of assay: cell-based. Conditions: Homo sapiens, NCI-H460, 3 hrs, read-out: Inhibition (HTRF IC50 nM) of KRas-mediated Phosphorylation of ERK, H460. An outline of the steps:
as §1

For assay [11], the system named is A549 cells, pERK. The description is as above. Type of assay: cell-based. Particulars: Homo sapiens, 3 hrs, read-out: Inhibition (HTRF IC50 nM) of KRas-mediated Phosphorylation of ERK, A549. The essentials:
as §1

T1 sequence (P01116 1-169 isoform P01116-2 G12V): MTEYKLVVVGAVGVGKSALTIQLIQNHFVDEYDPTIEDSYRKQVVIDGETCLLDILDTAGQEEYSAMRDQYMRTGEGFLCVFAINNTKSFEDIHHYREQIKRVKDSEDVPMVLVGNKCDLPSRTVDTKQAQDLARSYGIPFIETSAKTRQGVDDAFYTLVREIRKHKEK

Broadly, the pIC50 is the IC50 on a negative log10 scale, so that one unit is a factor of ten. A high value points to a low IC50. For orientation: IC50 means the point on the concentration scale where inhibition reaches its midpoint. On to `CCc1c(F)ccc2cc(O)cc(N3CCc4c(nc(OC[C@@]56CCCN5C[C@H](F)C6)nc4N4CCCC5(CNC(=O)N5)C4)C3)c12` (stereo partly drawn) [Example 62, 7-(7-(8-ethyl-7-fluoro-3-hydroxynaphthalen-1-yl)-2-(((2R,7aS)-2-fluorohexahydro-1H-pyrrolizin-7a-yl)methoxy)-5,6,7,8-tetrahydropyrido[3,4-d]pyrimidin-4-yl)-1,3,7-triazaspiro[4.5]decan-2-one], for which the negative logarithm of the IC50 (pIC50) in assay [1], in assay [2] and in assay [3] was at least 8.70 in each case. The concentration for half-maximal inhibition (IC50) in assay [4] worked out at 325 nM; in [5], 4 nM; in [6], 15 nM; in assay [7] it was 125 nM; in assay [8], 81 nM; in assay [9], 11 nM. Moreover, the values for the IC50 in assay [10] and in assay [11] were 69 nM and 25 nM, respectively.
As to `CCc1c(F)ccc2cc(O)cc(N3CCc4c(nc(OC[C@@]56CCCN5C[C@H](F)C6)nc4N4CCCn5nc(C(=O)N(C)C)cc5C4)C3)c12` [Example 66, 5-(7-(8-ethyl-7-fluoro-3-hydroxynaphthalen-1-yl)-2-(((2R,7aS)-2-fluorohexahydro-1H-pyrrolizin-7a-yl)methoxy)-5,6,7,8-tetrahydropyrido[3,4-d]pyrimidin-4-yl)-N,N-dimethyl-5,6,7,8-tetrahydro-4H-pyrazolo[1,5-a][1,4]diazepine-2-carboxamide], the pIC50 in [1], in assay [2] and in assay [3] was at least 8.70 in each case. In addition, the concentration for half-maximal inhibition (IC50) in assay [5] turned out to be 1 nM; in assay [6], 1 nM; in assay [7], 62 nM; in [8], 5 nM; in [9], 2 nM; in [10], 36 nM. Also, the IC50 in assay [11] stood at 5 nM.
`O=S1(=O)NCC2(CCCN(c3nc(OC[C@@]45CCCN4C[C@H](F)C5)nc4c3CCN(c3cc(O)cc5ccc(F)c(Cl)c35)C4)C2)N1` (stereo partly drawn) [Example 72, 7-(7-(8-chloro-7-fluoro-3-hydroxynaphthalen-1-yl)-2-(((2R,7aS)-2-fluorohexahydro-1H-pyrrolizin-7a-yl)methoxy)-5,6,7,8-tetrahydropyrido[3,4-d]pyrimidin-4-yl)-2-thia-1,3,7-triazaspiro[4.5]decane 2,2-dioxide]: the negative-log IC50 (pIC50) in [1], in assay [2] and in assay [3] was at least 8.70 each time. The half-inhibitory concentration (IC50) in assay [4] came out at 148 nM; in assay [5], 7 nM; in [6] it was 10 nM; in assay [7], 126 nM; in assay [8], 59 nM; in [9], 8 nM. For the same compound, the IC50 in assay [10] is 59 nM; in assay [11], 32 nM.
With `CCc1c(F)ccc2cc(O)cc(N3CCc4c(nc(OCC56CCCN5CCC6)nc4N4CCCn5nc(C(=O)N(C)C)cc5C4)C3)c12` [Example 175, 5-[7-(8-ethyl-7-fluoro-3-hydroxy-1-naphthyl)-2-(1,2,3,5,6,7-hexahydropyrrolizin-8-ylmethoxy)-6,8-dihydro-5H-pyrido[3,4-d]pyrimidin-4-yl]-N,N-dimethyl-4,6,7,8-tetrahydropyrazolo[1,5-a][1,4]diazepine-2-carboxamide], the negative-log IC50 (pIC50) in assay [1], in assay [2] and in assay [3] was at least 8.70 throughout. In addition, the 50% inhibitory concentration (IC50) in [4] came out at 7860 nM; in assay [5] it was 58 nM; in assay [6], 53 nM; in assay [7], 1120 nM; in [8], 85 nM; in [9], 50 nM. The half-inhibitory concentration (IC50) worked out at 750 nM in [10] and 326 nM in [11].
For `CCc1c(F)ccc2cc(O)cc(N3CCc4c(nc(OC[C@@]56CCCN5C[C@H](F)C6)nc4N4CCC[C@]5(C4)NC(=O)NC5=O)C3)c12` [Example 196, (R)-7-(7-(8-ethyl-7-fluoro-3-hydroxynaphthalen-1-yl)-2-(((2R,7aS)-2-fluorohexahydro-1H-pyrrolizin-7a-yl)methoxy)-5,6,7,8-tetrahydropyrido[3,4-d]pyrimidin-4-yl)-1,3,7-triazaspiro[4.5]decane-2,4-dione], the pIC50 in [1], in assay [2] and in assay [3] was at least 8.70 in each case. In addition, the IC50 is 18 nM in assay [4]; 5 nM in assay [5]; 6 nM in assay [6]; 5 nM in [7]; 11 nM in assay [8]; 1 nM in assay [9]. Besides, the concentration for half-maximal inhibition (IC50) in [10] and in [11] was 2 nM each time.
As to `CCc1c(F)ccc2cc(O)cc(N3CCc4c(nc(OCC5(CN(C)C)CC5)nc4N4CCC[C@@](C)(O)C4)C3)c12` [Example 199, (R)-1-(2-((1-((dimethylamino)methyl)cyclopropyl)methoxy)-7-(8-ethyl-7-fluoro-3-hydroxynaphthalen-1-yl)-5,6,7,8-tetrahydropyrido[3,4-d]pyrimidin-4-yl)-3-methylpiperidin-3-ol], the negative-log IC50 (pIC50) in assay [1], in assay [2] and in [3] was at least 8.70 throughout. Moreover, the IC50 in assay [4] was determined as 2500 nM; in assay [5] it was 31 nM; in [6], 43 nM; in assay [7], 441 nM; in assay [8] it was 262 nM; in [9], 65 nM. The figures for the IC50 in assay [10] and in assay [11] were 242 nM and 201 nM, respectively.
Consider `CCc1c(F)ccc2cc(O)cc(N3CCc4c(nc(OCC5(CN(C)C)CC5)nc4N4C[C@@H]5C(=O)NC(=O)[C@@H]5C4)C3)c12` [Example 200, (3aS,6aR)-5-[2-[[1-[(dimethylamino)methyl]cyclopropyl]methoxy]-7-(8-ethyl-7-fluoro-3-hydroxy-1-naphthyl)-6,8-dihydro-5H-pyrido[3,4-d]pyrimidin-4-yl]-3a,4,6,6a-tetrahydropyrrolo[3,4-c]pyrrole-1,3-dione], for which the negative-log IC50 (pIC50) in assay [1], in [2] and in assay [3] was at least 8.70 in each case. Moreover, the IC50 was determined as 9110 nM in [4]; 27 nM in [5]; 62 nM in assay [6]; 832 nM in assay [7]; 264 nM in assay [8]; 77 nM in [9]. Further, the results for the half-maximal inhibitory concentration (IC50) in assay [10] and in [11] were 578 nM and 142 nM, respectively.
With `CCc1c(F)ccc2cc(O)cc(N3CCc4c(nc(OCC5(CN(C)C)CC5)nc4N4CCCC5(C4)NC(=O)NC5=O)C3)c12` (centres unmarked) [Example 201, 7-(2-((1-((dimethylamino)methyl)cyclopropyl)methoxy)-7-(8-ethyl-7-fluoro-3-hydroxynaphthalen-1-yl)-5,6,7,8-tetrahydropyrido[3,4-d]pyrimidin-4-yl)-1,3,7-triazaspiro[4.5]decane-2,4-dione], the results for the pIC50 in [1], in assay [2] and in [3] were at least 8.70, 8.40 and at least 8.70, respectively. Further, the IC50 in [4] is 80.5 nM; in [5], 49 nM; in [6] it was 49 nM; in [7], 49 nM; in assay [8] it was 176 nM; in assay [9] it was 12 nM. For the same compound, the results for the IC50 in assay [10] and in [11] were 26 nM and 14 nM, respectively.
Consider `O=C1NCC2(CCCN(c3nc(OC[C@@]45CCCN4C[C@H](F)C5)nc4c3CCN(c3cc(O)cc5ccc(F)c(Br)c35)C4)C2)N1` (stereo partly drawn) [Example 216, 7-(7-(8-bromo-7-fluoro-3-hydroxynaphthalen-1-yl)-2-(((2R,7aS)-2-fluorohexahydro-1H-pyrrolizin-7a-yl)methoxy)-5,6,7,8-tetrahydropyrido[3,4-d]pyrimidin-4-yl)-1,3,7-triazaspiro[4.5]decan-2-one], for which the figures for the pIC50 in [1], in [2] and in assay [3] were at least 8.70, 8.52 and at least 8.70, respectively. The IC50 in [4] was 1260 nM; in assay [5], 19 nM; in assay [6] it was 92 nM; in [7], 531 nM; in assay [8], 300 nM; in assay [9], 27 nM. Also, the values for the IC50 in assay [10] and in assay [11] were 293 nM and 206 nM, respectively.
